From patent US8513224B2, “Crystalline form C of tigecycline dihydrochloride and methods for its preparation” (Sandoz AG, priority 2008, dated 2013)
Structures can show the parent of a compound that is named as a salt.

What was measured:
Type in all cases: physicochemical
[1] = Physical stability at elevated temperatures (impurities by HPLC); conditions: for 4-Epi-Tigecycline 7 days at 80° C. / Total impurities 7 days at 80° C. / Stability in words (impurities after storage): stored 7 days at 80° C.; for 4-Epi-Tigecycline 7 days at 80° C. / Total impurities 7 days at 80° C.: in % (unit assumed)
Text: Tigecycline must be available in a physically stable form as well, in order to avoid degradation and as a consequence the building of undesired byproducts. Table 4 compares the stability data of the different crystalline forms of Tigecycline free base and Tigecycline hydrochloride with these of crystalline form C of Tigecycline dihydrochloride from the present invention.
Therefore crystalline form C of Tigecycline dihydrochloride in essentially pure polymorphic form is more preferred than amorphous Tigecycline dihydrochloride.

physchem = assay: physchem
Description: The finished dosage form contains lyophilized amorphous Tigecycline respectively Tigecycline hydrochloride. Before lyophilizing, Tigecycline respectively acid addition salts of Tigecycline are dissolved in water, thus water solubility is an important factor to consider.
A UV-vis Lambda 35 spectrophotometer (Perkin-Elmer) was used (λ=347 nm, 1.0 cm quartz cells). Perkin Elmer® UV Win Lab-5.1 software was used.
A saturated solution of Tigecycline, Tigecycline hydrochloride or Tigecycline dihydrochloride in distilled water was prepared and the suspension was stirred at room temperature for 30 minutes with a stirring speed of 1000 U/min. The suspension was filtered through a 0.45 μm filter. Finally the resulting solution was diluted 10000-fold and measured against water at a wavelength of 347 nm.

[2] = Thermodynamical stability (crystal structure after storage); conditions: stored 7 days at 80° C.
[3] = Water content on storage at defined relative humidity; conditions: stored at about 0% relative humidity
Text: Form C of Tigecycline dihydrochloride is an anhydrous form, containing no water when stored at about 0% relative humidity and containing not more than about 0.8% to 1.7% e.g. when stored at about 50% relative humidity.

| SMILES | 4-Epi-Tigecycline at ambient conditions [1] [%] | Total impurities at ambient conditions [1] [%] | 4-Epi-Tigecycline 7 days at 80° C. [1] | Total impurities 7 days at 80° C. [1] | also measured |
| --- | --- | --- | --- | --- | --- |
| CN(C)c1cc(NC(=O)CNC(C)(C)C)c(O)c2c1C[C@H]1C[C@H]3[C@H](N(C)C)C(O)=C(C(N)=O)C(=O)[C@@]3(O)C(O)=C1C2=O [WO 2007/127292 I, Tigecycline] | – | – | – | – | 4-Epi-Tigecycline at ambient conditions ([1]; listed as WO 2007/127792 I): 0.34%; Total impurities at ambient conditions ([1]; listed as WO 2007/127792 I): 0.59%; 4-Epi-Tigecycline 7 days at 80° C. ([1]; listed as WO 2007/127792 I): 1.26; Total impurities 7 days at 80° C. ([1]; listed as WO 2007/127792 I): 2.22 |
| CN(C)c1cc(NC(=O)CNC(C)(C)C)c(O)c2c1C[C@H]1C[C@H]3[C@H](N(C)C)C(O)=C(C(N)=O)C(=O)[C@@]3(O)C(O)=C1C2=O [WO 2006/128150 V, Tigecycline] | < 0.05 | 0.22 | 0.18 | 0.37 | – |
| CN(C)c1cc(NC(=O)CNC(C)(C)C)c(O)c2c1C[C@H]1C[C@H]3[C@H](N(C)C)C(O)=C(C(N)=O)C(=O)[C@@]3(O)C(O)=C1C2=O [A (xHCl), Tigecycline hydrochloride] | – | – | – | – | Water solubility, Concentration (physchem; 30 min): 503 mg/mL; solubility at 30 min (physchem; water, thermodynamic from solid, Water solubility, Concentration): 503 mg/mL; 4-Epi-Tigecycline at ambient conditions ([1]; hydrochloride): 0.84%; Total impurities at ambient conditions ([1]; hydrochloride): 1.07%; 4-Epi-Tigecycline 7 days at 80° C. ([1]; hydrochloride): 0.89; Total impurities 7 days at 80° C. ([1]; hydrochloride): 1.81 |
| CN(C)c1cc(NC(=O)CNC(C)(C)C)c(O)c2c1C[C@H]1C[C@H]3[C@H](N(C)C)C(O)=C(C(N)=O)C(=O)[C@@]3(O)C(O)=C1C2=O [C (x2HCl), Tigecycline dihydrochloride] | 0.73 | 0.83 | 2.40 | 2.60 | Water solubility compared with the other crystalline forms (physchem): highest water solubility; Change of crystal structure on storage [2]: did not change its crystal structure; Water content [3]: no water |
| CN(C)c1cc(NC(=O)CNC(C)(C)C)c(O)c2c1C[C@H]1C[C@H]3[C@H](N(C)C)C(O)=C(C(N)=O)C(=O)[C@@]3(O)C(O)=C1C2=O [amorphous (x2HCl), Tigecycline dihydrochloride] | – | – | – | – | 4-Epi-Tigecycline at ambient conditions ([1]; dihydrochloride): 4.97%; Total impurities at ambient conditions ([1]; dihydrochloride): 5.05%; 4-Epi-Tigecycline 7 days at 80° C. ([1]; dihydrochloride): 16.42; Total impurities 7 days at 80° C. ([1]; dihydrochloride): 18.82 |
| CN(C)c1cc(NC(=O)CNC(C)(C)C)c(O)c2c1C[C@H]1C[C@H]3[C@H](N(C)C)C(O)=C(C(N)=O)C(=O)[C@@]3(O)C(O)=C1C2=O.Cl.Cl [C + 20% amorphous (x2HCl), Tigecycline dihydrochloride] | 1.73 | 1.81 | 4.34 | 4.88 | Stability in words (impurities after storage) [1]: less stable than a pure polymorphic form C |
| CN(C)c1cc(NC(=O)CNC(C)(C)C)c(O)c2c1C[C@H]1C[C@H]3[C@H](N(C)C)C(O)=C(C(N)=O)C(=O)[C@@]3(O)C(O)=C1C2=O [B (xHCl), Tigecycline hydrochloride] | – | – | – | – | 4-Epi-Tigecycline at ambient conditions ([1]; hydrochloride): 0.93%; Total impurities at ambient conditions ([1]; hydrochloride): 1.91%; 4-Epi-Tigecycline 7 days at 80° C. ([1]; hydrochloride): 1.60; Total impurities 7 days at 80° C. ([1]; hydrochloride): 4.19 |
| CN(C)c1cc(NC(=O)CNC(C)(C)C)c(O)c2c1C[C@H]1C[C@H]3[C@H](N(C)C)C(O)=C(C(N)=O)C(=O)[C@@]3(O)C(O)=C1C2=O [WO 2008/066935 IX, Tigecycline] | 0.15 | 0.43 | 0.70 | 2.13 | – |
| CN(C)c1cc(NC(=O)CNC(C)(C)C)c(O)c2c1C[C@H]1C[C@H]3[C@H](N(C)C)C(O)=C(C(N)=O)C(=O)[C@@]3(O)C(O)=C1C2=O [WO 2007/127292 II, Tigecycline] | – | – | – | – | 4-Epi-Tigecycline at ambient conditions ([1]; listed as WO 2007/127792 II): 0.17%; Total impurities at ambient conditions ([1]; listed as WO 2007/127792 II): 0.24%; 4-Epi-Tigecycline 7 days at 80° C. ([1]; listed as WO 2007/127792 II): 0.38; Total impurities 7 days at 80° C. ([1]; listed as WO 2007/127792 II): 0.91 |
| CN(C)c1cc(NC(=O)CNC(C)(C)C)c(O)c2c1C[C@H]1C[C@H]3[C@H](N(C)C)C(O)=C(C(N)=O)C(=O)[C@@]3(O)C(O)=C1C2=O [WO 2006/128150 II, Tigecycline] | 1.04 | 1.6 | 10.83 | 18.44 | Stability in words (impurities after storage) [1]: tremendous increase in total impurities |
| CN(C)c1cc(NC(=O)CNC(C)(C)C)c(O)c2c1C[C@H]1C[C@H]3[C@H](N(C)C)C(=O)C(C(N)=O)=C(O)[C@@]3(O)C(=O)C1=C2O [WO 2008/066935 XII, Tigecycline] | 0.15 | 0.4 | 0.70 | 4.38 | – |
| CN(C)c1cc(NC(=O)CNC(C)(C)C)c(O)c2c1C[C@H]1C[C@H]3[C@H](N(C)C)C(O)=C(C(N)=O)C(=O)[C@@]3(O)C(O)=C1C2=O [WO 2006/128150 IV, Tigecycline] | 0.23 | 0.4 | 0.38 | 0.87 | – |
| CN(C)c1cc(NC(=O)CNC(C)(C)C)c(O)c2c1C[C@H]1C[C@H]3[C@H](N(C)C)C(=O)C(C(N)=O)=C(O)[C@@]3(O)C(=O)C1=C2O [WO 2006/128150 III, Tigecycline] | 0.16 | 0.16 | 2.18 | 4.46 | – |
| CN(C)c1cc(NC(=O)CNC(C)(C)C)c(O)c2c1C[C@H]1C[C@H]3[C@H](N(C)C)C(O)=C(C(N)=O)C(=O)[C@@]3(O)C(O)=C1C2=O [WO 2006/128150 I, Tigecycline] | 0.36 | 0.75 | 2.15 | 11.20 | Stability in words (impurities after storage) [1]: tremendous increase in total impurities |
